Laboratory results as given in patent publication US20260209234A1, “SUBSTITUTED DIHYDROPYRROLO[3,4-D]PYRIMIDINE COMPOUNDS AND THEIR USE IN TREATING MEDICAL CONDITIONS” (Karuna Therapeutics, Inc., priority 2022, published 2026).

What was measured:
[1] = target: T1, hM4 receptors (Homo sapiens, UniProt P08173); experiment: Human M4 PAM pERK assay; format: cell-based; conditions: CHO cells expressing hM4; EC20 of acetylcholine (10 nM final); TR-FRET
T1 construct: expressed in transfected cells; host or cells: CHO cells
T1 sequence (P08173 1-479): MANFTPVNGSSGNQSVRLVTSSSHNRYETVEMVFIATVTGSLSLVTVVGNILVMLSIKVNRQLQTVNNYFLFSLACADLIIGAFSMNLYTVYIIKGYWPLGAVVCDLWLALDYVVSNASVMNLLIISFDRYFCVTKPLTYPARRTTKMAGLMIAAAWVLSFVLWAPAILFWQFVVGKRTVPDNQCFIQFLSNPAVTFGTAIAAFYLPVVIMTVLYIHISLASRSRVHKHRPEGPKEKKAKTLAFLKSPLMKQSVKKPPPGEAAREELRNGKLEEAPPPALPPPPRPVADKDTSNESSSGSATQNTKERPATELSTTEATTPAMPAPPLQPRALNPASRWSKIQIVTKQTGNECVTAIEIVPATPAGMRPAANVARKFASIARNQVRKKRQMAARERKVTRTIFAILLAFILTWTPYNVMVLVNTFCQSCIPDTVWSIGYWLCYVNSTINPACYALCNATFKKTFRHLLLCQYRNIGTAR

[2] = target: T2, rM4 receptors (Rattus norvegicus, UniProt P08485); experiment: Rat M4 PAM pERK assay; format: cell-based; conditions: CHO cells expressing rM4; EC20 of acetylcholine (10 nM final); TR-FRET
T2 construct: expressed in transfected cells; host or cells: CHO cells
T2 sequence (P08485 1-478): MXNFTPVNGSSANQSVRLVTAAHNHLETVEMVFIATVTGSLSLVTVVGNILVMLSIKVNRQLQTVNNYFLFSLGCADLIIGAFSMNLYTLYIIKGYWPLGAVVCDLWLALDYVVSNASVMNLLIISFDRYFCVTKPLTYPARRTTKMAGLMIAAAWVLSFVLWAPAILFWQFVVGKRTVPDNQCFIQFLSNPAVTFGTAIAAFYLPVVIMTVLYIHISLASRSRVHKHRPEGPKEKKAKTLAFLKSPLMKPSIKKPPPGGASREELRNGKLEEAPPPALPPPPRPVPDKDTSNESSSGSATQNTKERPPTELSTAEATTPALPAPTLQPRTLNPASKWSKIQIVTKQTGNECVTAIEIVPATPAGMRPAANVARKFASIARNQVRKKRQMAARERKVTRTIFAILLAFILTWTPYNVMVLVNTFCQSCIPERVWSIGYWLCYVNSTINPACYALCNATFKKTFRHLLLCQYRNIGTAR

[3] = target: T3, human M4 receptor (Homo sapiens, UniProt P08173); experiment: M4 GTPγS PAM assay; format: biochemical; conditions: membranes of CHO-K1 cells stably expressing human M4; EC20 acetylcholine 40 nM; 35S-GTP
T3 construct: expressed in transfected cells
T3 sequence (P08173 1-479): T1 sequence (P08173 1-479)
Protocol: The M4 GTPγS PAM method was used. Membranes were prepared for GTPgS binding assays from CHO-K1 cells stably expressing human M4 receptor. Briefly, cells were grown in 5-layer cell culture flasks. Cells were washed with 50 mL of PBS and then dissociated with 0.05% trypsin. Dissociated cells were then collected by centrifugation at 650×g for 8 minutes at 4° C. Pellets were washed again in PBS by centrifugation and resuspended in 30 mL of 20 mM HEPES, 10 mM EDTA, pH 7.4. After sitting on ice for 30 min, membranes were collected by centrifugation at 50000×g for 15′ at 4° C., resuspended in 30 mL of 20 mM HEPES, 0.1 mM EDTA, pH 7.4 and collected again by centrifugation. Pellets were then washed twice by centrifugation in 30 mL of 20 mM HEPES, pH 7.4, and stored at −80° C. until the day of the assay. On the day of the assay, pellets were thawed on ice and resuspended in 1 mL of 20 mM HEPES, pH 7.4, 10 mM MgCl2, 100 mM NaCl using dounce homogenization. Membrane protein concentration is determined by BCA protein assay (Promega, Madison, WI) according to Promega guidelines.
On the day of the assay, serial dilutions of test PAM compounds were brought up in assay buffer (20 mM HEPES, 10 mM MgCl2, 100 mM NaCl) at 4× final assay concentration. […] of membrane homogenates (containing […] of membrane protein) were prepared in assay buffer supplemented with GDP at 4× final assay concentration (final assay concentration of GDP is 5 μM for M2 and 0.1 μM for M4) and dispensed into 96 well polypropylene, U-bottom Greiner plates. […] of vehicle or test PAM compound at 4× of final assay concentration diluted in the assay buffer were added to membrane and plates are incubated for 10-15 minutes at room temperature with gentle shaking. Then, […] of EC20 acetylcholine in assay buffer at 4× final assay concentration was added to assay plates (EC20 final assay concentrations was 40 nM for human M4).
Plates were then incubated, with shaking, for an additional 10-15 minutes. […] of 0.4 nM 35S-GTP (Perkin Elmer, Waltham, MA) in assay buffer was added to assay mixtures. The binding reaction is left on the shaker for 1 hour at room temperature. Membranes in assay reactions were then transferred to GF/C filter plates (Unifilter, Perkin Elmer) and washed three times using a FilterMate Harvester (Perkin Elmer) with cold assay buffer containing no GDP. Filter plates were then dried at 40° C. overnight followed by the addition of […] of Beta Plate Scintillation liquid. Plates are top and bottom sealed before being read on TopCount scintillation counter (Perkin Elmer, Waltham, MA).

Row | EC50 [1] [nM] | EC50 [2] [nM] | EC50 [3] [nM] | Compound
1 | ≥ 2000 | ≥ 2000 | ≥ 2000 | COc1nc(C)nc2c1C(C)N(C(=O)CC1CN(c3ccnc(C(F)(F)F)c3)C1)C2 (single isomer, unassigned) [Compound I-53, 1-(4-Methoxy-2,5-dimethyl-5,7-dihydro-6H-pyrrolo[3,4-d]pyrimidin-6-yl)-2-(1-(2-(trifluoromethyl)pyridin-4-yl)azetidin-3-yl)ethan-1-one]
2 | ≥ 2000 | ≥ 2000 | ≥ 2000 | COc1nc(C)nc2c1C(C)N(C(=O)CC1CN(c3cccc(C#N)c3)C1)C2 (single isomer, unassigned) [Compound I-54, 3-(3-(2-(4-Methoxy-2,5-dimethyl-5,7-dihydro-6H-pyrrolo[3,4-d]pyrimidin-6-yl)-2-oxoethyl)azetidin-1-yl)benzonitrile]
3 | 500 to 2000 | 500 to 2000 | ≥ 2000 | COc1nc(C)nc2c1C(C)N(C(=O)CC1CN(c3cccc(C#N)c3)C1)C2 (single isomer, unassigned) [Compound I-55, 3-(3-(2-(4-Methoxy-2,5-dimethyl-5,7-dihydro-6H-pyrrolo[3,4-d]pyrimidin-6-yl)-2-oxoethyl)azetidin-1-yl)benzonitrile]
4 | ≤ 100 | 100 to 500 | 100 to 500 | COc1nc(C)nc2c1C(C)N(C(=O)CC1CN(c3ccc(C#N)cc3)C1)C2 (single isomer, unassigned) [Compound I-56, 4-(3-(2-(4-Methoxy-2,5-dimethyl-5,7-dihydro-6H-pyrrolo[3,4-d]pyrimidin-6-yl)-2-oxoethyl)azetidin-1-yl)benzonitrile]
5 | ≥ 2000 | ≥ 2000 | 500 to 2000 | COc1nc(C)nc2c1C(C)N(C(=O)CC1CN(c3ccc(C#N)cc3)C1)C2 (single isomer, unassigned) [Compound I-57, 4-(3-(2-(4-Methoxy-2,5-dimethyl-5,7-dihydro-6H-pyrrolo[3,4-d]pyrimidin-6-yl)-2-oxoethyl)azetidin-1-yl)benzonitrile]
6 | ≥ 2000 | ≥ 2000 | ≥ 2000 | COc1nc(C)nc2c1C(C)N(C(=O)CC1CN(c3cncnc3)C1)C2 (single isomer, unassigned) [Compound I-60, 1-(4-Methoxy-2,5-dimethyl-5,7-dihydro-6H-pyrrolo[3,4-d]pyrimidin-6-yl)-2-(1-(pyrimidin-5-yl)azetidin-3-yl)ethan-1-one]
7 | 100 to 500 | 500 to 2000 | 100 to 500 | COc1nc(C)nc2c1CN(C(=O)CC1CN(c3ccnc(C(F)(F)F)c3)C1)C2C (single isomer, unassigned) [Compound I-62, 1-(4-Methoxy-2,7-dimethyl-5,7-dihydro-6H-pyrrolo[3,4-d]pyrimidin-6-yl)-2-(1-(2-(trifluoromethyl)pyridin-4-yl)azetidin-3-yl)ethan-1-one]
8 | 500 to 2000 | ≥ 2000 | 500 to 2000 | COc1nc(C)nc2c1CN(C(=O)CC1CN(c3ccnc(C(F)(F)F)c3)C1)C2C (single isomer, unassigned) [Compound I-63, 1-(4-Methoxy-2,7-dimethyl-5,7-dihydro-6H-pyrrolo[3,4-d]pyrimidin-6-yl)-2-(1-(2-(trifluoromethyl)pyridin-4-yl)azetidin-3-yl)ethan-1-one]

Second part, the compound before the results:

Row | Compound | EC50 [1] [nM] | EC50 [2] [nM] | EC50 [3] [nM]
9 | COc1nc(C#N)nc2c1C(C)N(C(=O)CC1CN(c3ccc(C4CC4)nc3)C1)C2 (single isomer, unassigned) [Compound I-33, 6-(2-(1-(6-Cyclopropylpyridin-3-yl)azetidin-3-yl)acetyl)-4-methoxy-5-methyl-6,7-dihydro-5H-pyrrolo[3,4-d]pyrimidine-2-carbonitrile] | ≤ 100 | 100 to 500 | 100 to 500
10 | COc1nc(C#N)nc2c1CN(C(=O)CC1CN(c3ccnc(C(F)(F)F)c3)C1)C2C (single isomer, unassigned) [Compound I-34, 4-Methoxy-7-methyl-6-(2-(1-(2-(trifluoromethyl)pyridin-4-yl)azetidin-3-yl)acetyl)-6,7-dihydro-5H-pyrrolo[3,4-d]pyrimidine-2-carbonitrile] | 500 to 2000 | ≥ 2000 | 500 to 2000
11 | COc1nc(C#N)nc2c1CN(C(=O)CC1CN(c3ccnc(C(F)(F)F)c3)C1)C2C (single isomer, unassigned) [Compound I-35, 4-Methoxy-7-methyl-6-(2-(1-(2-(trifluoromethyl)pyridin-4-yl)azetidin-3-yl)acetyl)-6,7-dihydro-5H-pyrrolo[3,4-d]pyrimidine-2-carbonitrile] | 100 to 500 | 500 to 2000 | ≥ 2000
12 | COc1nc(C#N)nc2c1C(C)N(C(=O)CC1CN(c3ccnc(C(F)(F)F)c3)C1C)C2 (single isomer, unassigned) [Compound I-36, 4-Methoxy-5-methyl-6-(2-(2-methyl-1-(2-(trifluoromethyl)pyridin-4-yl)azetidin-3-yl)acetyl)-6,7-dihydro-5H-pyrrolo[3,4-d]pyrimidine-2-carbonitrile] | ≤ 100 | ≤ 100 | ≤ 100
13 | COc1nc(C#N)nc2c1C(C)N(C(=O)CC1CN(c3ccnc(C(F)(F)F)c3)C1C)C2 (single isomer, unassigned) [Compound I-37, 4-Methoxy-5-methyl-6-(2-(2-methyl-1-(2-(trifluoromethyl)pyridin-4-yl)azetidin-3-yl)acetyl)-6,7-dihydro-5H-pyrrolo[3,4-d]pyrimidine-2-carbonitrile] | ≤ 100 | 100 to 500 | ≤ 100
14 | COc1nc(C#N)nc2c1C(C)N(C(=O)CC1CN(c3ccnc(C(F)(F)F)c3)C1C)C2 (single isomer, unassigned) [Compound I-38, 4-Methoxy-5-methyl-6-(2-(2-methyl-1-(2-(trifluoromethyl)pyridin-4-yl)azetidin-3-yl)acetyl)-6,7-dihydro-5H-pyrrolo[3,4-d]pyrimidine-2-carbonitrile] | 100 to 500 | 500 to 2000 | 500 to 2000
15 | COc1nc(C#N)nc2c1C(C)N(C(=O)CC1CN(c3ccnc(C(F)(F)F)c3)C1C)C2 (single isomer, unassigned) [Compound I-39, 4-Methoxy-5-methyl-6-(2-(2-methyl-1-(2-(trifluoromethyl)pyridin-4-yl)azetidin-3-yl)acetyl)-6,7-dihydro-5H-pyrrolo[3,4-d]pyrimidine-2-carbonitrile] | 500 to 2000 | 500 to 2000 | ≥ 2000
